Data on 17 molecules can be found in US20100056568A1, “Cycloalkylamine substituted isoquinolone and isoquinolinone derivatives” (sanofi-aventis, priority 2006, published 2010).

Structures can show the parent of a compound that is named as a salt.

T1 sequence (O75116 11-552): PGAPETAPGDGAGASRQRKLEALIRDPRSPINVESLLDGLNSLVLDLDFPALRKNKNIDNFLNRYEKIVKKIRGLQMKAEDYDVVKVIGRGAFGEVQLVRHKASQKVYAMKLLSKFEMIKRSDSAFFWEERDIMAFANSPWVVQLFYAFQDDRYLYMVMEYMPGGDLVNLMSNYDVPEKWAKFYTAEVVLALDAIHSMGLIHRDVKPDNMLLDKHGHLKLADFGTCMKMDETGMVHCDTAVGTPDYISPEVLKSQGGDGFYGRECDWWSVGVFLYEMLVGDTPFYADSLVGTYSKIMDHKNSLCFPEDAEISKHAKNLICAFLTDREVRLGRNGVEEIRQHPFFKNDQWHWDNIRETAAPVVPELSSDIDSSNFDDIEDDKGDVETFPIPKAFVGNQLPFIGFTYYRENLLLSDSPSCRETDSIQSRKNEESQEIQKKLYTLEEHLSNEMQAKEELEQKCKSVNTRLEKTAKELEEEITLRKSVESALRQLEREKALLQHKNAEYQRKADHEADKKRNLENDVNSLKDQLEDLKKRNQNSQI

The test has as its target T1, human recombinant ROCK II (Homo sapiens, UniProt O75116).
T1 construct: recombinant human ROCK-II residues 11-552; His6 (N); purchased Upstate Ltd., Dundee, UK
The test is described as follows: Determination of Rho kinase inhibition (Caliper peptide phosphorylation assay). It is filed as biochemical. Particulars: negative decadal logarithm of the IC50; ROCK II residues 11-552, fluorescein peptide substrate, 60 min at 32° C.; tested as salt or free base obtained in the examples. As for the experimental part: To measure Rho-kinase inhibition, IC50 values were determined according to the following protocol:
Active human recombinant ROCK II (N-terminal His6-tagged recombinant human ROCK-II residues 11-552) was purchased from Upstate Ltd., Dundee, UK. The peptide substrate, Fluorescein-AKRRRLSSLRA-COOH, was obtained from JPT Peptide Technologies, Berlin, Germany. Adenosine-5′-triphosphate (ATP), bovine serum albumine (BSA), dimethylsulphoxide (DMSO), 4-(2-Hydroxyethyl)piperazine-1-ethanesulfonic acid (Hepes), Brij-35 and dithiothreitol (DTT) were purchased from Sigma-Aldrich, Munich, Germany. Tris(hydroxymethyl)-aminomethane (Tris), magnesium chloride, NaOH, 1M HCl and EDTA were obtained from Merck Biosciences, Darmstadt, Germany. “Complete” protease inhibitor was from Roche Diagnostics, Mannheim, Germany.
Test compounds were diluted to the appropriate concentrations in buffer 1 (25 mM Tris-HCl, pH 7.4, 5 mM MgCl2, 2 mM DTT, 0.02% (w/v) BSA and 3% DMSO). The ROCK II enzyme was diluted to a concentration of 100 ng/ml in buffer 2 (25 mM Tris-HCl, pH 7.4, 5 mM MgCl2, 2 mM DTT and 0.02% (w/v) BSA). The peptide substrate and ATP were diluted to concentrations of 3 μM and 120 μM, respectively, in the buffer 2. Two μl of the compound solution were mixed with 2 μl of the diluted enzyme in a 384-well small volume microtiter plate (Greiner, Bio-One, Frickenhausen, Germany), and the kinase reaction was initiated by addition of 2 μl of the solution containing peptide substrate and ATP. After 60 min incubation at 32° C., the reaction was stopped by addition of 20 μl of a solution containing 100 mM Hepes-NaOH, pH 7.4, 0.015% (v/v) Brij-35, 45 mM EDTA and 0.227% chip coating reagent 1 (Caliper Lifescience Inc, Hopkinton, Mass.). Phosphorylation of the substrate peptide was then detected on a Caliper 3000 instrument essentially as described by Pommereau et al (J. Biomol. Screening 9(5), 409-416, 2004). Separation conditions were as follows: Pressure −1.3 psi, upstream voltage −1562 V, downstream voltage −500 V, sample sip time 200 ms. Positive controls (buffer 1 instead of compound) and negative controls (buffer 1 instead of compound and buffer 2 instead of ROCK II) were run in parallel on each plate.
The following products/compounds were tested in said assay by using the respective form (salt or free base) obtained as in the examples described above and the following activities were measured.
A word on the IC50: it is the concentration at which inhibition is half-maximal. Regarding `N[C@H]1CCCC[C@H]1Nc1ccc2c(=O)[nH]ccc2c1` (relative stereo) [Compound 40, 6-cis-(2-Amino-cyclohexyl-amino)-2H-isoquinolin-1-one], the IC50 was not above 1000 nM.

As for `N[C@H]1CC[C@H](Nc2ccc3c(=O)[nH]ccc3c2)CC1` [Compound 36, 6-trans-(4-Amino-cyclohexyl-amino)-2H-isoquinolin-1-one], the concentration for half-maximal inhibition (IC50) is not above 1000 nM.

As to `NC1CCCC(Nc2ccc3c(=O)[nH]ccc3c2)C1` (centres unmarked) [Compound 41, 6-(3-Amino-cyclohexylamino)-2H-isoquinolin-1-one], the IC50 was not above 1000 nM.

With `CCN(CC)[C@H]1CC[C@@H](Nc2ccc3c(=O)[nH]ccc3c2)CC1` [Compound 44, 6-cis-(4-Diethyl-amino-cyclohexyl-amino)-2H-iso-quinolin-1-one], the half-maximal inhibitory concentration (IC50) was 1000 to 10000 nM.

Turning to `CCN[C@H]1CC[C@@H](Nc2ccc3c(=O)[nH]ccc3c2)CC1` [Compound 45, 6-cis-(4-ethylamino-cyclohexylamino)-2H-isoquinolin-1-one], the IC50 is not above 1000 nM.

For the molecule `CCCN(CCC)[C@H]1CC[C@@H](Nc2ccc3c(=O)[nH]ccc3c2)CC1` [Compound 46, 6-cis-(4-Dipropyl-amino-cyclohexyl-amino)-2H-iso-quinolin-1-one], the IC50 is 1000 to 10000 nM.

Take `CCCN[C@H]1CC[C@@H](Nc2ccc3c(=O)[nH]ccc3c2)CC1` [Compound 47, 6-cis-(4-Propyl-amino-cyclohexyl-amino)-2H-iso-quinolin-1-one]: the half-maximal inhibitory concentration (IC50) was not above 1000 nM.

On to `O=c1[nH]ccc2cc(N[C@H]3CC[C@@H](NCc4ccccc4)CC3)ccc12` [Compound 48, 6-cis-(4-Benzyl-amino-cyclohexyl-amino)-2H-iso-quinolin-1-one], for which the IC50 was 1000 to 10000 nM.

With `CC(C)N[C@H]1CC[C@@H](Nc2ccc3c(=O)[nH]ccc3c2)CC1` [Compound 49, 6-cis-(4-Isopropyl-amino-cyclohexyl-amino)-2H-iso-quinolin-1-one], the concentration for half-maximal inhibition (IC50) was 1000 to 10000 nM.

In the case of `O=c1[nH]ccc2cc(N[C@H]3CC[C@@H](NCc4cccc(Cl)c4)CC3)ccc12` [Compound 50, 6-cis-[4-(3-Chloro-benzylamino)-cyclohexyl-amino]-2H-isoquinolin-1-one], the IC50 was 1000 to 10000 nM.

With `O=c1[nH]ccc2cc(N[C@H]3CC[C@@H](NCc4ccc(Cl)cc4)CC3)ccc12` [Compound 51, 6-cis-[4-(4-Chloro-benzylamino)-cyclohexyl-amino]-2H-isoquinolin-1-one], the concentration for half-maximal inhibition (IC50) is 1000 to 10000 nM.

In the case of `O=c1[nH]ccc2cc(N[C@H]3CC[C@@H](NCC4CCNCC4)CC3)ccc12` [Compound 52, 6-cis-{4-[(Piperidin-4-ylmethyl)-amino]-cyclohexyl-amino}-2H-isoquinolin-1-one], the IC50 was not above 1000 nM.

For `O=c1[nH]ccc2cc(N[C@H]3CC[C@@H](NC4CC4)CC3)ccc12` [Compound 53, 6-cis-(4-Cyclopropyl-amino-cyclo-hexylamino)-2H-isoquinolin-1-one], the concentration for half-maximal inhibition (IC50) was not above 1000 nM.

As for `O=c1[nH]ccc2cc(N[C@H]3CC[C@@H](N(C4CC4)C4CC4)CC3)ccc12` [Compound 54, 6-cis-(4-Dicyclo-propyl-amino-cyclohexyl-amino)-2H-isoquinolin-1-one], the IC50 was not above 1000 nM.

`N[C@H]1CC[C@@H](Sc2cc3ccncc3cc2Cl)CC1` [Compound 61, cis-4-(7-Chloro-isoquinolin-6-ylsulfanyl)-cyclohexylamine]: the IC50 is not above 1000 nM.

As to `N[C@H]1CC[C@@H](Sc2cc3ccncc3cc2Br)CC1` [Compound 62, cis-4-(7-Bromo-isoquinolin-6-ylsulfanyl)-cyclohexylamine hydrochloride], the IC50 was not above 1000 nM.

Take `N[C@H]1CC[C@@H](Sc2cc3cc[nH]c(=O)c3cc2Cl)CC1` [Compound 64, 6-cis-(4-Amino-cyclohexylsulfanyl)-7-chloro-2H-isoquinolin-1-one]: the IC50 was not above 1000 nM.
